How the values were obtained:
human Gal-3 (hGal-3) = human Gal-3 (hGal-3) (Homo sapiens (Human), UniProt P17931); test: Competitive binding assay: biotinylated hGal-3 binding to microplate-adsorbed asialofetuin (ASF); settings: Activity on hGal-3; binding of biotinylated hGal-3 to ASF-coated plates; mean values
How it was run: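 Serially diluted compounds competed with biotinylated human Gal-3 for binding to plate-adsorbed asialofetuin over 3 h at 4 °C. Bound Gal-3 was detected with streptavidin-peroxidase (80 ng/mL, 1 h, 4 °C) and ABTS substrate. IC50 values are means of several measurements.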

human Gal-1 (hGal-1) = test: Competitive binding assay: biotinylated hGal-1 binding to microplate-adsorbed asialofetuin (ASF); settings: Activity on hGal-1; binding of biotinylated hGal-1 to ASF-coated plates; mean values
How it was run: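 Inhibition measured as loss of hGal-1 (biotinylated, 300–1000 ng/mL, wild type or Cys→Ser mutant) binding to adsorbed asialofetuin over 3 h at 4 °C. Bound lectin detected with streptavidin-HRP and ABTS (410 nm, 30–45 min); IC50 values averaged across repeat measurements.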

Chain of human Gal-1 (hGal-1) (P09382 2-135 limits assumed): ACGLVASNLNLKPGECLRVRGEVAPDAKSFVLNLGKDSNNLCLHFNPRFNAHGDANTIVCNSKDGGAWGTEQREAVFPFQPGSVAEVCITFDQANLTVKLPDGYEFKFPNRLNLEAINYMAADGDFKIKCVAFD
Chain of human Gal-3 (hGal-3) (P17931 whole entry): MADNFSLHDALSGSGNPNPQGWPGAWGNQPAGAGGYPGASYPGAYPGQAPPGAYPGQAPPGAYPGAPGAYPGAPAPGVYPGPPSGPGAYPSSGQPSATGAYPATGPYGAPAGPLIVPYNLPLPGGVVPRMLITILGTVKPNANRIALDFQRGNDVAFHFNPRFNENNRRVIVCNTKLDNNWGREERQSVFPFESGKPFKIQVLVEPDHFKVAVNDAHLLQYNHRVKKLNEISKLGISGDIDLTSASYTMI

## CO[C@@H]1[C@@H](n2cc(-c3cc(F)c(F)c(F)c3)nn2)[C@@H](O)[C@@H](CO)O[C@H]1C(=O)N(c1cc(F)cc(Br)c1)[C@H]1CCCC[C@@H]1O [Example 120, (2R,3R,4S,5R,6R)-N-(3-bromo-5-fluorophenyl)-5-hydroxy-N-((1S,2S)-2-hydroxycyclohexyl)-6-(hydroxymethyl)-3-methoxy-4-(4-(3,4,5-trifluorophenyl)-1H-1,2,3-triazol-1-yl)tetrahydro-2H-pyran-2-carboxamide]
Human Gal-3 (hGal-3)
  IC50: 21 nM
Human Gal-1 (hGal-1)
  IC50: 422 nM

## CO[C@@H]1[C@@H](n2cc(-c3cc(F)c(F)c(F)c3)nn2)[C@@H](O)[C@@H](CO)O[C@H]1C(=O)N(c1cc(F)cc(Cl)c1)[C@H]1CCCC[C@@H]1O [Example 121, (2R,3R,4S,5R,6R)-N-(3-chloro-5-fluorophenyl)-5-hydroxy-N-((1S,2S)-2-hydroxycyclohexyl)-6-(hydroxymethyl)-3-methoxy-4-(4-(3,4,5-trifluorophenyl)-1H-1,2,3-triazol-1-yl)tetrahydro-2H-pyran-2-carboxamide]
Human Gal-3 (hGal-3)
  IC50: 19 nM
Human Gal-1 (hGal-1)
  IC50: 449 nM

## CO[C@@H]1[C@@H](n2cc(-c3cc(F)c(F)c(F)c3)nn2)[C@@H](O)[C@@H](CO)O[C@H]1C(=O)N(c1cccc(C)c1)[C@H]1CCCC[C@@H]1O [Example 122, (2R,3R,4S,5R,6R)-5-hydroxy-N-((1S,2S)-2-hydroxycyclohexyl)-6-(hydroxymethyl)-3-methoxy-N-(m-tolyl)-4-(4-(3,4,5-trifluorophenyl)-1H-1,2,3-triazol-1-yl)tetrahydro-2H-pyran-2-carboxamide]
Human Gal-3 (hGal-3)
  IC50: 43 nM
Human Gal-1 (hGal-1)
  IC50: 4750 nM

## CO[C@@H]1[C@@H](n2cc(-c3cc(F)c(F)c(F)c3)nn2)[C@@H](O)[C@@H](CO)O[C@H]1C(=O)N(c1ccc2nc(C)[nH]c2c1)[C@H]1CCCC[C@@H]1O [Example 123, (2R,3R,4S,5R,6R)-5-hydroxy-N-((1S,2S)-2-hydroxycyclohexyl)-6-(hydroxymethyl)-3-methoxy-N-(2-methyl-1H-benzo[d]imidazol-6-yl)-4-(4-(3,4,5-trifluorophenyl)-1H-1,2,3-triazol-1-yl)tetrahydro-2H-pyran-2-carboxamide]
Human Gal-3 (hGal-3)
  IC50: 85 nM
Human Gal-1 (hGal-1)
  IC50: 5880 nM

## O=C(CO[C@@H]1[C@@H](n2cc(-c3cc(F)c(F)c(F)c3)nn2)[C@@H](O)[C@@H](CO)O[C@H]1C(=O)N(c1cc(Cl)cc(Cl)c1)[C@H]1CCCC[C@@H]1O)N1CCOCC1 [Example 124, (2R,3R,4S,5R,6R)—N-(3,5-dichlorophenyl)-5-hydroxy-N-((1S,2S)-2-hydroxycyclohexyl)-6-(hydroxymethyl)-3-(2-morpholino-2-oxoethoxy)-4-(4-(3,4,5-trifluorophenyl)-1H-1,2,3-triazol-1-yl)tetrahydro-2H-pyran-2-carboxamide]
Human Gal-3 (hGal-3)
  IC50: 12 nM
Human Gal-1 (hGal-1)
  IC50: 226 nM

## O=C(CO[C@@H]1[C@@H](n2cc(-c3cc(F)c(F)c(F)c3)nn2)[C@@H](O)[C@@H](CO)O[C@H]1C(=O)N(c1cc(Cl)cc(Cl)c1)[C@H]1CCCC[C@@H]1O)N1CC[C@H](O)C1 [Example 125, (2R,3R,4S,5R,6R)—N-(3,5-dichlorophenyl)-5-hydroxy-N-((1S,2S)-2-hydroxycyclohexyl)-6-(hydroxymethyl)-3-(2-((S)-3-hydroxypyrrolidin-1-yl)-2-oxoethoxy)-4-(4-(3,4,5-trifluorophenyl)-1H-1,2,3-triazol-1-yl)tetrahydro-2H-pyran-2-carboxamide]
Human Gal-3 (hGal-3)
  IC50: 9 nM
Human Gal-1 (hGal-1)
  IC50: 134 nM

## O=C(CO[C@@H]1[C@@H](n2cc(-c3cc(F)c(F)c(F)c3)nn2)[C@@H](O)[C@@H](CO)O[C@H]1C(=O)N(c1cc(Cl)cc(Cl)c1)[C@H]1CCCC[C@@H]1O)N1CC[C@@H](O)C1 [Example 126, (2R,3R,4S,5R,6R)—N-(3,5-dichlorophenyl)-5-hydroxy-N-((1S,2S)-2-hydroxycyclohexyl)-6-(hydroxymethyl)-3-(2-((R)-3-hydroxypyrrolidin-1-yl)-2-oxoethoxy)-4-(4-(3,4,5-trifluorophenyl)-1H-1,2,3-triazol-1-yl)tetrahydro-2H-pyran-2-carboxamide]
Human Gal-3 (hGal-3)
  IC50: 16 nM
Human Gal-1 (hGal-1)
  IC50: 134 nM

## O=C(CO[C@@H]1[C@@H](n2cc(-c3cc(F)c(F)c(F)c3)nn2)[C@@H](O)[C@@H](CO)O[C@H]1C(=O)N(c1cc(Cl)cc(Cl)c1)[C@H]1CCCC[C@@H]1O)N1CCC(O)CC1 [Example 127, (2R,3R,4S,5R,6R)—N-(3,5-dichlorophenyl)-5-hydroxy-N-((1S,2S)-2-hydroxycyclohexyl)-6-(hydroxymethyl)-3-(2-(4-hydroxypiperidin-1-yl)-2-oxoethoxy)-4-(4-(3,4,5-trifluorophenyl)-1H-1,2,3-triazol-1-yl)tetrahydro-2H-pyran-2-carboxamide]
Human Gal-3 (hGal-3)
  IC50: 12 nM
Human Gal-1 (hGal-1)
  IC50: 181 nM

## O=C(CO[C@@H]1[C@@H](n2cc(-c3cc(F)c(F)c(F)c3)nn2)[C@@H](O)[C@@H](CO)O[C@H]1C(=O)N(c1cc(Cl)cc(Cl)c1)[C@H]1CCCC[C@@H]1O)N1CC(O)C1 [Example 128]
Human Gal-3 (hGal-3)
  IC50: 13 nM
Human Gal-1 (hGal-1)
  IC50: 177 nM

## CO[C@@H]1[C@@H](n2cc(-c3cc(F)c(F)c(Cl)c3)nn2)[C@@H](O)[C@@H](CO)O[C@H]1C(=O)N(c1cc(Cl)cc(Cl)c1)[C@H]1CCCC[C@@H]1O [Example 129, (2R,3R,4S,5R,6R)-4-(4-(3-chloro-4,5-difluorophenyl)-1H-1,2,3-triazol-1-yl)-N-(3,5-dichlorophenyl)-5-hydroxy-N-((1S,2S)-2-hydroxycyclohexyl)-6-(hydroxymethyl)-3-methoxytetrahydro-2H-pyran-2-carboxamide]
Human Gal-3 (hGal-3)
  IC50: 32 nM
Human Gal-1 (hGal-1)
  IC50: 141 nM

## CO[C@@H]1[C@@H](n2cc(-c3cc(F)c(F)c(Cl)c3)nn2)[C@@H](O)[C@@H](CO)O[C@H]1C(=O)N(c1ccc(F)c(F)c1)[C@H]1CCCC[C@@H]1O [Example 130, (2R,3R,4S,5R,6R)-4-(4-(3-chloro-4,5-difluorophenyl)-1H-1,2,3-triazol-1-yl)-N-(3,4-difluorophenyl)-5-hydroxy-N-((1S,2S)-2-hydroxycyclohexyl)-6-(hydroxymethyl)-3-methoxytetrahydro-2H-pyran-2-carboxamide]
Human Gal-3 (hGal-3)
  IC50: 53 nM
Human Gal-1 (hGal-1)
  IC50: 924 nM

## CO[C@@H]1[C@@H](n2cc(-c3cc(F)c(F)c(Cl)c3)nn2)[C@@H](O)[C@@H](CO)O[C@H]1C(=O)N(c1ccc2ncsc2c1)[C@H]1CCCC[C@@H]1O [Example 131, (2R,3R,4S,5R,6R)-N-(benzo[d]thiazol-6-yl)-4-(4-(3-chloro-4,5-difluorophenyl)-1H-1,2,3-triazol-1-yl)-5-hydroxy-N-((1S,2S)-2-hydroxycyclohexyl)-6-(hydroxymethyl)-3-methoxytetrahydro-2H-pyran-2-carboxamide]
Human Gal-3 (hGal-3)
  IC50: 34 nM
Human Gal-1 (hGal-1)
  IC50: 224 nM

## CO[C@@H]1[C@@H](n2cc(-c3cc(F)c(F)c(Cl)c3)nn2)[C@@H](O)[C@@H](CO)O[C@H]1C(=O)N(c1cc(Cl)cc(C#N)c1)[C@H]1CCCC[C@@H]1O [Example 132, (2R,3R,4S,5R,6R)-4-(4-(3-chloro-4,5-difluorophenyl)-1H-1,2,3-triazol-1-yl)-N-(3-chloro-5-cyanophenyl)-5-hydroxy-N-((1S,2S)-2-hydroxycyclohexyl)-6-(hydroxymethyl)-3-methoxytetrahydro-2H-pyran-2-carboxamide]
Human Gal-3 (hGal-3)
  IC50: 13 nM
Human Gal-1 (hGal-1)
  IC50: 140 nM

## CO[C@@H]1[C@@H](n2cc(-c3cc(F)cc(Cl)c3)nn2)[C@@H](O)[C@@H](CO)O[C@H]1C(=O)N(c1ccc(F)c(F)c1)[C@H]1CCCC[C@@H]1O [Example 134, (2R,3R,4S,5R,6R)-4-(4-(3-chloro-5-fluorophenyl)-1H-1,2,3-triazol-1-yl)-N-(3,4-difluorophenyl)-5-hydroxy-N-((1S,2S)-2-hydroxycyclohexyl)-6-(hydroxymethyl)-3-methoxytetrahydro-2H-pyran-2-carboxamide]
Human Gal-3 (hGal-3)
  IC50: 63 nM
Human Gal-1 (hGal-1)
  IC50: 761 nM

## CO[C@@H]1[C@@H](n2cc(-c3cc(F)cc(Cl)c3)nn2)[C@@H](O)[C@@H](CO)O[C@H]1C(=O)N(c1cc(F)cc(C#N)c1)[C@H]1CCCC[C@@H]1O [Example 135, (2R,3R,4S,5R,6R)-4-(4-(3-chloro-5-fluorophenyl)-1H-1,2,3-triazol-1-yl)-N-(3-cyano-5-fluorophenyl)-5-hydroxy-N-((1S,2S)-2-hydroxycyclohexyl)-6-(hydroxymethyl)-3-methoxytetrahydro-2H-pyran-2-carboxamide]
Human Gal-3 (hGal-3)
  IC50: 52 nM
Human Gal-1 (hGal-1)
  IC50: 270 nM

## CO[C@@H]1[C@@H](n2cc(-c3cc(F)cc(Cl)c3)nn2)[C@@H](O)[C@@H](CO)O[C@H]1C(=O)N(c1cc(F)cc(Br)c1)[C@H]1CCCC[C@@H]1O [Example 136, (2R,3R,4S,5R,6R)-N-(3-bromo-5-fluorophenyl)-4-(4-(3-chloro-5-fluorophenyl)-1H-1,2,3-triazol-1-yl)-5-hydroxy-N-((1S,2S)-2-hydroxycyclohexyl)-6-(hydroxymethyl)-3-methoxytetrahydro-2H-pyran-2-carboxamide]
Human Gal-3 (hGal-3)
  IC50: 25 nM
Human Gal-1 (hGal-1)
  IC50: 323 nM

## CO[C@@H]1[C@@H](n2cc(-c3cc(F)cc(Cl)c3)nn2)[C@@H](O)[C@@H](CO)O[C@H]1C(=O)N(c1cc(Br)cc(C#N)c1)[C@H]1CCCC[C@@H]1O [Example 137, (2R,3R,4S,5R,6R)-N-(3-bromo-5-cyanophenyl)-4-(4-(3-chloro-5-fluorophenyl)-1H-1,2,3-triazol-1-yl)-5-hydroxy-N-((1S,2S)-2-hydroxycyclohexyl)-6-(hydroxymethyl)-3-methoxytetrahydro-2H-pyran-2-carboxamide]
Human Gal-3 (hGal-3)
  IC50: 24 nM
Human Gal-1 (hGal-1)
  IC50: 318 nM

## CO[C@@H]1[C@@H](n2cc(-c3cc(F)cc(Cl)c3)nn2)[C@@H](O)[C@@H](CO)O[C@H]1C(=O)N(c1cccc(Br)c1)[C@H]1CCCC[C@@H]1O [Example 138, (2R,3R,4S,5R,6R)-N-(3-bromophenyl)-4-(4-(3-chloro-5-fluorophenyl)-1H-1,2,3-triazol-1-yl)-5-hydroxy-N-((1S,2S)-2-hydroxycyclohexyl)-6-(hydroxymethyl)-3-methoxytetrahydro-2H-pyran-2-carboxamide]
Human Gal-3 (hGal-3)
  IC50: 43 nM
Human Gal-1 (hGal-1)
  IC50: 935 nM
